Experimental data as given in ChEMBL document CHEMBL2424635, “Discovery of novel histidine-derived lipo-amino acids: applied in the synthesis of ultra-short antimicrobial peptidomimetics having potent antimicrobial activity, salt resistance and protease stability” (Eur J Med Chem, 2013).
In brackets after ≈: the same amount, converted by molar mass. Activity calls are given as the source filed them. No cut-off for these calls is given here.

Columns and labels:
[1] = system: Staphylococcus aureus; experiment: Antibacterial activity against Staphylococcus aureus KCTC 1621 assessed as disruption of cellular structure at 3 x MIC after 1 hr by transmission electron microscopic analysis; assay type: functional, organism-based
[2] = system: Pseudomonas aeruginosa; experiment: Antibacterial activity against Pseudomonas aeruginosa KCTC 1637 assessed as growth inhibition after 18 to 20 hrs by broth microdilution method in presence of NaCl; assay type: functional
[3] = system: Escherichia coli; experiment: Antibacterial activity against Escherichia coli KCTC 1682 assessed as disruption of cellular structure at 3 x MIC after 1 hr by transmission electron microscopic analysis; assay type: functional, organism-based
[4] = system: Escherichia coli; experiment: Antibacterial activity against Escherichia coli KCTC 1682 assessed as growth inhibition after 18 to 20 hrs by broth microdilution method in presence of NaCl; assay type: functional
[5] = system: Staphylococcus aureus; experiment: Antibacterial activity against methicillin-resistant Staphylococcus aureus CCARM 3095 assessed as growth inhibition after 18 to 20 hrs by broth microdilution method; assay type: functional
[6] = system: Staphylococcus epidermidis; experiment: Antibacterial activity against Staphylococcus epidermidis KCTC 1917 assessed as growth inhibition after 18 to 20 hrs by broth microdilution method in presence of NaCl; assay type: functional
[7] = system: Salmonella typhimurium; experiment: Antibacterial activity against Salmonella typhimurium KCTC 1926 assessed as growth inhibition after 18 to 20 hrs by broth microdilution method; assay type: functional, Salmonella enterica subsp. enterica serovar Typhimurium; details: Salmonella enterica
[8] = system: Bacillus subtilis; experiment: Antibacterial activity against Bacillus subtilis KCTC 3068 assessed as growth inhibition after 18 to 20 hrs by broth microdilution method; assay type: functional
[9] = system: Staphylococcus aureus; experiment: Antibacterial activity against Staphylococcus aureus KCTC 1621 assessed as growth inhibition after 18 to 20 hrs by broth microdilution method; assay type: functional
[10] = system: Escherichia coli; experiment: Antibacterial activity against Escherichia coli KCTC 1682 assessed as growth inhibition at 50 ug/ml after 18 to 20 hrs by broth microdilution method in presence of trypsin; assay type: functional, organism-based
[11] = system: Staphylococcus epidermidis; experiment: Antibacterial activity against Staphylococcus epidermidis KCTC 1917 assessed as growth inhibition after 18 to 20 hrs by broth microdilution method; assay type: functional
[12] = system: Salmonella typhimurium; experiment: Antibacterial activity against Salmonella typhimurium KCTC 1926 assessed as growth inhibition after 18 to 20 hrs by broth microdilution method in presence of NaCl; assay type: functional, Salmonella enterica subsp. enterica serovar Typhimurium; details: Salmonella enterica
[13] = system: Pseudomonas aeruginosa; experiment: Antibacterial activity against Pseudomonas aeruginosa KCTC 1637 assessed as growth inhibition after 18 to 20 hrs by broth microdilution method; assay type: functional
[14] = Hemolytic activity in human RBC assessed as hemoglobin release after 1 hr; assay type: ADME, cell-based, Erythrocyte; details: red blood cells (RBC)
[15] = system: Bacillus subtilis; experiment: Antibacterial activity against Bacillus subtilis KCTC 3068 assessed as growth inhibition after 18 to 20 hrs by broth microdilution method in presence of NaCl; assay type: functional
[16] = system: Staphylococcus aureus; experiment: Antibacterial activity against methicillin-resistant Staphylococcus aureus CCARM 3090 assessed as growth inhibition after 18 to 20 hrs by broth microdilution method; assay type: functional
[17] = system: Staphylococcus aureus; experiment: Antibacterial activity against Staphylococcus aureus KCTC 1621 assessed as growth inhibition after 18 to 20 hrs by broth microdilution method in presence of NaCl; assay type: functional
[18] = system: Staphylococcus aureus; experiment: Antibacterial activity against Staphylococcus aureus KCTC 1621 assessed as growth inhibition at 50 ug/ml after 18 to 20 hrs by broth microdilution method in presence of trypsin; assay type: functional, organism-based
[19] = system: Staphylococcus aureus; experiment: Antibacterial activity against methicillin-resistant Staphylococcus aureus CCARM 3089 assessed as growth inhibition after 18 to 20 hrs by broth microdilution method; assay type: functional
[20] = system: Escherichia coli; experiment: Antibacterial activity against Escherichia coli KCTC 1682 assessed as growth inhibition after 18 to 20 hrs by broth microdilution method; assay type: functional

Compound | Activity [1] | MIC [2] | Activity [3] | MIC [4] | MIC [5] | MIC [6] | MIC [7] | MIC [8] | MIC [9] | growth inhibition (GI) [10] | MIC [11] | MIC [12] | MIC [13] | HC50 at 1 h [14] | MIC [15] | MIC [16] | MIC [17] | growth inhibition (GI) [18] | MIC [19] | MIC [20]
CCCCCCCCCCn1c[n+](CCCCCCCCCC)cc1C[C@H](NC(=O)[C@@H](N)CCCNC(=N)N)C(=O)N[C@@H](CCCNC(=N)N)C(N)=O | Active | 8 µg/mL | Active | 16 µg/mL | 4 µg/mL | 4 µg/mL | 8 µg/mL | 4 µg/mL | 4 µg/mL | Active | 4 µg/mL | 16 µg/mL | 8 µg/mL | 121 µg/mL | 4 µg/mL | 4 µg/mL | 4 µg/mL | Active | 8 µg/mL | 8 µg/mL
CC[C@H](C)[C@H](NC(=O)CN)C(=O)NCC(=O)N[C@@H](C)C(=O)N[C@H](C(=O)N[C@@H](CC(C)C)C(=O)N[C@@H](CCCCN)C(=O)N[C@H](C(=O)N[C@@H](CC(C)C)C(=O)N[C@H](C(=O)N[C@H](C(=O)NCC(=O)N[C@@H](CC(C)C)C(=O)N1CCC[C@H]1C(=O)N[C@@H](C)C(=O)N[C@@H](CC(C)C)C(=O)N[C@H](C(=O)N[C@@H](CO)C(=O)N[C@@H](Cc1c[nH]c2ccccc12)C(=O)N[C@H](C(=O)N[C@@H](CCCCN)C(=O)N[C@@H](CCCNC(=N)N)C(=O)N[C@@H](CCCCN)C(=O)N[C@@H](CCCNC(=N)N)C(=O)N[C@@H](CCC(N)=O)C(=O)N[C@@H](CCC(N)=O)C(N)=O)[C@@H](C)CC)[C@@H](C)CC)[C@@H](C)O)[C@@H](C)O)C(C)C)C(C)C | – | – | – | – | – | – | – | – | – | inactive | – | – | – | – | – | – | – | inactive | – | –
CCCCCCCCCCn1c[n+](CCCCCCCCCC)cc1C[C@H](N)C(=O)N[C@@H](CCCNC(=N)N)C(N)=O | – | 8 µg/mL | – | 8 µg/mL | 2 µg/mL | 2 µg/mL | 4 µg/mL | 2 µg/mL | 2 µg/mL | Active | 2 µg/mL | 8 µg/mL | 8 µg/mL | 49 µg/mL | 2 µg/mL | 4 µg/mL | 2 µg/mL | Active | 2 µg/mL | 4 µg/mL
CCCCCCCCCCn1cncc1C[C@H](NC(=O)[C@@H](N)CCCNC(=N)N)C(=O)N[C@@H](CCCNC(=N)N)C(N)=O | – | 16 µg/mL | – | > 64 µg/mL | 8 µg/mL (≈ 13.2 µM) | 32 µg/mL | 32 µg/mL (≈ 52.7 µM) | 2 µg/mL (≈ 3.3 µM) | 4 µg/mL (≈ 6.59 µM) | Active | 2 µg/mL (≈ 3.3 µM) | > 64 µg/mL | 16 µg/mL (≈ 26.4 µM) | > 256 µg/mL | 8 µg/mL | 8 µg/mL (≈ 13.2 µM) | 32 µg/mL | Active | 8 µg/mL (≈ 13.2 µM) | 16 µg/mL (≈ 26.4 µM)
CCCCCCCn1c[n+](CCCCCCC)cc1C[C@H](NC(=O)[C@@H](N)CCCNC(=N)N)C(=O)N[C@@H](CCCNC(=N)N)C(N)=O | Active | 8 µg/mL | Active | > 32 µg/mL | 4 µg/mL | 16 µg/mL | 8 µg/mL | 2 µg/mL | 4 µg/mL | Active | 2 µg/mL | 32 µg/mL | 8 µg/mL | > 256 µg/mL | 8 µg/mL | 8 µg/mL | 8 µg/mL | Active | 4 µg/mL | 4 µg/mL
